This is an account of results in EP1374681A1, “Process for identifying fungicidally active compounds” (Bayer CropScience AG, priority 2002, dated 2004).

The subject of one test is Phytophtora infectans. Description: Test of fungicidal action (fungal growth inhibition vs. untreated control; ED50 and Wirkungsgrad). It is filed as cell-based. The procedure: Dazu können z.B. in die Kavitäten von Mikrotiterplatten eine Lösung des zu prüfenden Wirkstoffs pipettiert werden. Nachdem das Lösungsmittel abgedampft war, wird zu jeder Kavität Medium hinzugefügt. Das Medium wird vorher mit einer geeigneten Konzentration von Sporen bzw. Mycel des zu prüfenden Pilzes versetzt. Die resultierenden Konzentrationen des Wirkstoffes betragen z.B. 0,1, 1, 10 und 100 ppm.
Die Platten werden anschließend auf einem Schüttler bei einer Temperatur von 22°C inkubiert, bis in der unbehandelten Kontrolle ein ausreichendes Wachstum feststellbar ist.
Die Auswertung erfolgt dann photometrisch bei einer Wellenlänge von 620 nm. Aus den Messdaten der verschiedenen Konzentrationen kann die Wirkstoffdosis bestimmt werden, die zu einer 50 %igen Hemmung des Pilzwachstums gegenüber der unbehandelten Kontrolle führt (ED50).
Ein anderes Verfahren zur Prüfung der fungiziden Wirkung beruht darauf, die protektive Wirkung der zu testenden Verbindung an einer Pflanze zu testen. Dazu wird die Pflanze mit einer Lösung des zu prüfenden Wirkstoffs besprüht und anschließend mit einer Lösung von Pilzssporen inokuliert und über mehrere Tage hinweg beobachtet. Es kann dann im Vergleich zu einer Pflanze, die nicht vorab mit einer Wirkstofflösung behandelt wurde, festgestellt werden, ob der zu prüfende Wirkstoff den Befall bzw. die Ausbreitung des Pilzes verhindert oder mindert.
Auch hier kann die Wirkstoffkonzentration bestimmt werden, die zu einer 50 %igen Hemmung des Pilzwachstums gegenüber der unbehandelten Kontrolle führt (ED50).
Weiterhin kann als Größe zur Beurteilung einer fungiziden Wirkung der Wirkungsgrad herangezogen werden, wobei 0 % für einen Wirkungsgrad steht, der demjenigen der Kontrolle entspricht, während ein Wirkungsgrad von 100 % bedeutet, daß kein Befall beobachtet wird.
In die Kavitäten von Mikrotiterplatten wurde eine methanolische Lösung des anhand eines erfindungsgemäßen Verfahrens identifizierten Wirkstoffs (Tab. I, Bsp. 2), versetzt mit einem Emulgator, pipettiert. […]

Another test has as its target T1, Phosphomannomutase (Saccharomyces cerevisiae, UniProt P07283).
T1 construct: made in house; host or cells: E. coli BL21 (DE3), plasmid pSec53 (pGEX-4T-1)
T1 sequence (P07283 1-254): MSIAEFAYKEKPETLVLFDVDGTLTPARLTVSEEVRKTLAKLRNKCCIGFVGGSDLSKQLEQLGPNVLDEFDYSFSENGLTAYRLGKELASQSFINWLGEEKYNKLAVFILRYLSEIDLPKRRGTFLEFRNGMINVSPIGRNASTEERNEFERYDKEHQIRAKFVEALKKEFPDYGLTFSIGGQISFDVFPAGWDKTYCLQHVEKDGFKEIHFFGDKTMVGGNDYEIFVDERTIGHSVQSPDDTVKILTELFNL
Description: Phosphomannomutase inhibition test, coupled fluorescence assay (NADPH) in 384-well MTP. The following applies: negative decadic logarithm of the molar IC50 (50 % inhibition of the enzyme). It is filed as biochemical. As to the method: Die Messung kann auch in für HTS- oder UHTS-Assays gängigeren Formaten erfolgen, z.B. in Mikrotiterplatten, in denen z.B. ein Gesamtvolumen von 5 bis 50 µl pro Ansatz bzw. pro Well vorgelegt wird und die einzelnen Komponenten in einer der vorstehend angegebenen Endkonzentrationen vorliegen (vgl. Beispiel 2). Dabei wird die zu testende, potentiell die Aktivität des Enzyms inhibierende oder aktivierende Verbindung (Kandidatenmolekül) z.B. in einer geeigneten Konzentration im oben angegebenen Testpuffer enthaltend D-Mannose-1-phosphat vorgelegt. Dann wird das erfindungsgemäße Polypeptid in oben genanntem Testpuffer, enthaltend NADP^+, Glucose und die für den gekoppelten Assay notwendigen Hilfsenzyme Phosphoglucose Isomerase und Glucose-6-phosphat Dehydrogenase zugegeben und die Reaktion damit gestartet. Der Ansatz wird dann z.B. bis zu 2 oder 3 Stunden bei einer geeigneten Temperatur inkubiert und die Fluoreszenzzunahme bei einer Anregungswellenlänge von 360 nm und einer Emissionswellenlänge von 460 nm gemessen.
Eine weitere Messung erfolgt in einem entsprechenden Ansatz, jedoch ohne Zugabe eines Kandidatenmoleküls und ohne Zugabe eines erfindungsgemäßen Polypeptids (Negativkontrolle). Eine weitere Messung erfolgt wiederum bei Abwesenheit eines Kandidatenmoleküls, jedoch bei Anwesenheit des erfindungsgemäßen Polypeptids (Positivkontrolle). […]

SMILES strings stand for the structures.

In turn, `C[n+]1ccc(/C=C/c2ccc(N(c3ccc(/C=C/c4cc[n+](C)cc4)cc3)c3ccc(N(c4ccc(/C=C/c5cc[n+](C)cc5)cc4)c4ccc(/C=C/c5cc[n+](C)cc5)cc4)cc3)cc2)cc1` [Beispiel 2] came in with an ED50 in the test on Phytophtora infectans (Phytophtora infectans, 50 % inhibition of fungal growth vs. untreated control) of 500 ppm. Further, in the test on Phytophtora infectans (Phytophtora infectans, Wirkungsgrad: 0 % = like control, 100 % = no infestation), the WG is given as 33%. In addition, the “fungizide Wirkung” value in the test on Phytophtora infectans (at the application rate given in Tabelle II) is “deutlich fungizide Wirkung”. Further, the pI50 at Phosphomannomutase is reported as 4,9.
